The test system of this experiment is E. californica suspension subcultures. Briefly: Seed pretreatment, HPLC analysis of suspension subculture extracts. In kind it is cell-based, Eschscholtzia californica. The following applies: ungerminated seeds pretreated or not pretreated; T1 and T3 conditions; organic solvent extract of cell biomass. The source says:
Ungerminated E. californica seeds were either pretreated by exposure to 5-azacytidine, or not pretreated. After uniform germination, callus induction and subculture, suspension initiation, and suspension subculture, the resulting suspension subcultures were subjected to T1 (control) and T3 conditions.

Molecules are shown by their SMILES.

With `Nc1ncn([C@@H]2O[C@H](CO)[C@@H](O)[C@H]2O)c(=O)n1` [5-azacytidine], the “size, number, and location of peaks in the chromatograms” value is “significantly altered the size, number, and location of peaks”.

The values above are taken from patent US20020081731A1, “MANIPULATION OF PLANT CELL AND TISSUE CULTURES” (priority 1995, published 2002).
